Values after ≈ are worked out from the molar mass of the structure shown. Like-named read-outs stand apart in the source and are kept apart here.
Tests used:
[1] = tested on: Staphylococcus aureus ATCC 29213; test: Agar well diffusion, inhibition zone; format: cell-based; parameters: dose or concentration left out as unconfirmed; settings: ATCC29213, S. aureus ATCC 29213, NA = No Activity, read-out: Mean Diameter of Inhibition Zone (Mean ± SEM)
From the text: (§1) The antimicrobial activity of all synthesized compounds 2–13 was screened against a panel of two Gram-positive bacteria (Staphylococcus aureus ATCC 29213 and Bacillus subtilis ATCC 6633), two Gram-negative bacteria (Escherichia coli ATCC 25922, Pseudomonas aeruginosa ATCC 27853) and two fungi (Candida albicans ATCC 10231 and Aspergillus flavus ATCC 46283) using the agar well diffusion method. Ciprofloxacin and clotrimazole were used as antibacterial and antifungal standards, respectively. The results of this study were recorded as the average diameter of the inhibition zones (IZ) in Table 1. […] Additionally, the promising activity against S. aureus was observed from compounds 9, 12 and 13, however against B. subtilis from compounds 12 and 13.
(§2) The antimicrobial assay was performed in vitro for the target compounds 2–13 against Staphylococcus aureus ATCC 29213, Bacillus subtilis ATCC 6633 as Gram-positive bacteria, Escherichia coli ATCC 25922, Pseudomonas aeruginosa ATCC 27853 as Gram-negative bacteria and Candida albicans ATCC 10231, Aspergillus flavus ATCC 46283 as fungi. At the first, 100 μL of the test bacteria/fungi were grown in 10 mL of fresh media until they reached a count of approximately 10^8 cells/ml for bacteria or 10^5 cells/mL for fungi. […] The plates were incubated for 24 h at 37 °C (for bacteria and yeast) and for 72 h at 27 °C (for filamentous fungi), each test was repeated three times. After incubation, the microorganism’s growth was observed. Ciprofloxacin and clotrimazole were used as standard antibacterial and antifungal drugs, respectively. The resulting inhibition zone diameters were measured in millimeters using the diffusion technique. […] The different concentrations (triplicate) of each compound were tested and compared with standard drugs.

[2] = tested on: Bacillus subtilis ATCC 6633; test: Agar well diffusion, inhibition zone; format: cell-based; parameters: dose or concentration left out as unconfirmed; settings: ATCC6633, B. subtilis ATCC 6633, NA = No Activity, read-out: Mean Diameter of Inhibition Zone (Mean ± SEM)
From the text: as §1, §2

[3] = tested on: Staphylococcus aureus ATCC 29213; test: MIC, modified agar well diffusion method; format: cell-based; settings: ATCC29213, S. aureus ATCC 29213, read-out: MIC (Mean ± SEM)
From the text: as §1
(§3) The antimicrobial assay was performed in vitro for the target compounds 2–13 against Staphylococcus aureus ATCC 29213, Bacillus subtilis ATCC 6633 as Gram-positive bacteria, Escherichia coli ATCC 25922, Pseudomonas aeruginosa ATCC 27853 as Gram-negative bacteria and Candida albicans ATCC 10231, Aspergillus flavus ATCC 46283 as fungi. At the first, 100 μL of the test bacteria/fungi were grown in 10 mL of fresh media until they reached a count of approximately 10^8 cells/ml for bacteria or 10^5 cells/mL for fungi. […] of each sample (at 0.5 mg/mL) was added to each well (10 mm diameter holes cut in the agar gel). The plates were incubated for 24 h at 37 °C (for bacteria and yeast) and for 72 h at 27 °C (for filamentous fungi), each test was repeated three times. After incubation, the microorganism’s growth was observed. Ciprofloxacin and clotrimazole were used as standard antibacterial and antifungal drugs, respectively. The resulting inhibition zone diameters were measured in millimeters using the diffusion technique. […] The different concentrations (triplicate) of each compound were tested and compared with standard drugs.

[4] = tested on: Bacillus subtilis ATCC 6633; test: MIC, modified agar well diffusion method; format: cell-based; settings: ATCC6633, B. subtilis ATCC 6633, read-out: MIC (Mean ± SEM)
From the text: as §1, §3

[5] = tested on: Escherichia coli ATCC 25922; test: MIC, modified agar well diffusion method; format: cell-based; settings: ATCC25922, E. coli ATCC 25922, read-out: MIC (Mean ± SEM)
From the text: as §1, §3

[6] = tested on: Pseudomonas aeruginosa ATCC 27853; test: MIC, modified agar well diffusion method; format: cell-based; settings: ATCC27853, P. aeruginosa ATCC 27853, read-out: MIC (Mean ± SEM)
From the text: as §1, §3

[7] = tested on: Escherichia coli ATCC 25922; test: Agar well diffusion, inhibition zone; format: cell-based; parameters: dose or concentration left out as unconfirmed; settings: ATCC25922, E. coli ATCC 25922, NA = No Activity, read-out: Mean Diameter of Inhibition Zone (Mean ± SEM)
From the text: as §1, §3

[8] = tested on: Pseudomonas aeruginosa ATCC 27853; test: Agar well diffusion, inhibition zone; format: cell-based; parameters: dose or concentration left out as unconfirmed; settings: ATCC27853, P. aeruginosa ATCC 27853, NA = No Activity, read-out: Mean Diameter of Inhibition Zone (Mean ± SEM)
From the text: as §1, §3

[9] = tested on: Aspergillus flavus ATCC 46283; test: MIC, modified agar well diffusion method; format: cell-based; settings: ATCC46283, A. flavus ATCC 46283, read-out: MIC (Mean ± SEM)
From the text: as §1, §3

[10] = tested on: Candida albicans ATCC 10231; test: MIC, modified agar well diffusion method; format: cell-based; settings: ATCC10231, C. albicans ATCC 10231, read-out: MIC (Mean ± SEM)
From the text: as §1, §3

[11] = tested on: Aspergillus flavus ATCC 46283; test: Agar well diffusion, inhibition zone; format: cell-based; parameters: dose or concentration left out as unconfirmed; settings: ATCC46283, A. flavus ATCC 46283, NA = No Activity, read-out: Mean Diameter of Inhibition Zone (Mean ± SEM)
From the text: as §1, §3

[12] = tested on: Candida albicans ATCC 10231; test: Agar well diffusion, inhibition zone; format: cell-based; parameters: dose or concentration left out as unconfirmed; settings: ATCC10231, C. albicans ATCC 10231, NA = No Activity, read-out: Mean Diameter of Inhibition Zone (Mean ± SEM)
From the text: as §1, §3

[13] = MTT assay for cytotoxic activity; format: cell-based; settings: African green monkey, Vero cells (normal kidney epithelial cell line), read-out: IC50 (Mean ± SEM), cytotoxic activity
From the text: (§4) The results are expressed as IC50 values (µM) and are depicted in Table 3.

[14] = tested on: human breast cancer (MCF-7) cells; test: MTT assay for cytotoxic activity; format: cell-based; settings: read-out: IC50 (Mean ± SEM), cytotoxic activity
From the text: as §4

[15] = tested on: Staphylococcus aureus DNA gyrase; parameters: method as in PMID 25792505; settings: cited from earlier work
[16] = molecular target: T1, dihydrofolate reductase (DHFR) (Homo sapiens, UniProt P00374); parameters: method as in PMID 23792351; settings: cited from earlier work
T1 construct: purchased Bio Vision
T1 sequence (P00374 1-187): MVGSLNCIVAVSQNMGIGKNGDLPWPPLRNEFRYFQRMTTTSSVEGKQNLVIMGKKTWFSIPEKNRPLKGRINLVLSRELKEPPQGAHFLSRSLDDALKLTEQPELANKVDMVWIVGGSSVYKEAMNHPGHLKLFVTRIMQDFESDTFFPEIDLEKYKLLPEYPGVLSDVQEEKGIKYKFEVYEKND

[17] = Homo sapiens, MCF7, MCF-7 cells

Compound | zone of inhibition [1] [mm] | zone of inhibition [2] [mm] | MIC [3] [µg/mL] | MIC [4] [µg/mL] | MIC [5] [µg/mL] | MIC [6] [µg/mL] | zone of inhibition [7] [mm] | zone of inhibition [8] [mm] | MIC [9] [µg/mL] | MIC [10] [µg/mL] | zone of inhibition [11] [mm] | zone of inhibition [12] [mm] | IC50 [13] [µM] | IC50 [14, 17] [µM] | IC50 ([14]; MCF-7 cells) [µM] | IC50 [15] [µM] | fold more active than the positive control methotrexate as DHFR inhibitor [16] [fold]
O=C(O)c1cn(C2CC2)c2cc(N3CCNCC3)c(F)cc2c1=O [Ciprofloxacin, reference compound] | 24 ± 0.6 | 23 ± 0.2 | 5.85 ± 0.13 (≈ 17.7 µM) | 2.9 ± 0.02 (≈ 8.75 µM) | 2.9 ± 0.25 (≈ 8.75 µM) | 2.9 ± 0.04 (≈ 8.75 µM) | 26 ± 0.25 | 23 ± 0.9 | – | – | – | – | – | – | – | – | –
Clc1ccccc1C(c1ccccc1)(c1ccccc1)n1ccnc1 [Clotrimazole, reference compound] | – | – | – | – | – | – | – | – | 4.25 ± 0.05 (≈ 12.3 µM) | 12.5 ± 0.15 (≈ 36.2 µM) | 25 ± 0.4 | 27 ± 0.21 | – | – | – | – | –
CCOC(=O)CNC(=S)NC(=O)Cc1ccccc1 [Compound 2, Ethyl ((2-phenylacetyl)carbonothionyl)glycinate] | 9 ± 0.61 | – | – | – | – | – | – | – | – | – | – | – | – | – | – | – | –
O=C(Cc1ccccc1)NC(=S)NN1C(=O)C(=Cc2ccccc2)N=C1c1ccccc1 [Compound 6, 1-(4-Benzylidene-4,5-dihydro-5-oxo-2-phenylimidazol-1-yl)-3-(2-phenylacetyl)thiourea] | 27 ± 0.2 | 30 ± 0.26 | 5.12 ± 0.05 (≈ 11.6 µM) | 2.29 ± 0.05 (≈ 5.2 µM) | 7.8 ± 0.1 (≈ 17.7 µM) | 2.48 ± 0.11 (≈ 5.63 µM) | 12 ± 0.1 | 21 ± 0.26 | 26.2 ± 0.03 (≈ 59.5 µM) | 91 ± 0.02 (≈ 207 µM) | 9 ± 0.03 | 6 ± 0.22 | 122.8 ± 0.4 | 23.7 ± 0.96 | – | – | –
O=C(Cc1ccccc1)NC(=S)NNC(=O)C(=Cc1ccccc1)NC(=O)c1ccccc1 [Compound 7a, 1-(2-Benzamido-3-phenylacryloyl)-4-phenylacetylthiosemicarbazide] | 30 ± 0.22 | 33 ± 0.5 | 4.15 ± 0.22 (≈ 9.05 µM) | 1.39 ± 0.5 (≈ 3.03 µM) | 4.22 ± 0.12 (≈ 9.2 µM) | 2.81 ± 0.01 (≈ 6.13 µM) | 18 ± 0.22 | 27 ± 0.03 | 5.21 ± 0.11 (≈ 11.4 µM) | 64 ± 0.41 (≈ 140 µM) | 24 ± 0.02 | 15 ± 0.3 | 149.1 ± 0.21 | 10.2 ± 0.65 | – | – | –
O=C(Cc1ccccc1)NC(=S)NNC(=O)C(=Cc1cccs1)NC(=O)c1ccccc1 [Compound 7b, 1-(2-Benzamido-3-(thiophen-2-yl)acryloyl)-4-phenylacetylthiosemicarbazide] | 33 ± 0.01 | 35 ± 0.26 | 3.9 ± 0.26 (≈ 8.39 µM) | 1.46 ± 0.1 (≈ 3.14 µM) | 4.68 ± 0.13 (≈ 10.1 µM) | 2.72 ± 0.15 (≈ 5.85 µM) | 18 ± 0.41 | 26 ± 0.21 | 5.7 ± 0.01 (≈ 12.3 µM) | 76 ± 0.31 (≈ 164 µM) | 25 ± 0.15 | 16 ± 0.12 | 133.3 ± 0.4 | 11.6 ± 0.59 | 11.6 ± 0.59 | – | –
O=c1cc2nc(Cc3ccccc3)[nH]c(=S)n2[nH]1 [Compound 9, 2-Benzyl-3,4-dihydro-4-thioxopyrazolo[1,5-a][1,3,5]triazin-7(6H)-one] | 21 ± 0.3 | 18 ± 0.25 | 9.92 ± 0.3 (≈ 38.4 µM) | 8.6 ± 0.25 (≈ 33.3 µM) | – | 17.6 ± 0.2 (≈ 68.2 µM) | – | 9 ± 0.25 | 20.4 ± 0.3 (≈ 79.2 µM) | 94 ± 0.1 (≈ 364 µM) | 15 ± 0.33 | 9 ± 0.2 | 62.45 ± 0.2 | 26.4 ± 0.46 | – | – | –
N#CCc1nnc(NC(=O)Cc2ccccc2)s1 [Compound 10, N-(5-(Cyanomethyl)-1,3,4-thiadiazol-2-yl)-2-phenylacetamide] | 15 ± 0.42 | 12 ± 0.21 | – | – | – | – | – | 6 ± 0.02 | – | – | 6 ± 0.41 | – | – | – | – | – | –
N=c1oc2ccccc2cc1-c1nnc(NC(=O)Cc2ccccc2)s1 [Compound 11, N-(5-(2-Imino-2H-chromen-3-yl)-1,3,4-thiadiazol-2-yl)-2-phenylacetamide] | 12 ± 0.3 | 6 ± 0.53 | – | – | – | – | – | – | – | – | – | – | – | – | – | – | –
O=C(Cc1ccccc1)NC(=S)N1NC(=O)C(=Cc2ccccc2)N=C1c1ccccc1 [Compound 12, 5-Benzylidene-5,6-dihydro-N-(1-hydroxy-2-phenylethylidene)-6-oxo-3-phenyl-1,2,4-triazine-2(1H)-carbothioamide] | 22 ± 0.05 | 23 ± 0.01 | 5.22 ± 0.03 (≈ 11.8 µM) | 2.3 ± 0.05 (≈ 5.22 µM) | 27 ± 0.02 (≈ 61.3 µM) | 12.5 ± 0.2 (≈ 28.4 µM) | 5 ± 0.58 | 17 ± 0.2 | 15.6 ± 0.01 (≈ 35.4 µM) | 85 ± 0.15 (≈ 193 µM) | 18 ± 0.03 | 14 ± 0.21 | 79.19 ± 0.28 | 35.9 ± 0.85 | – | – | –
O=C(Cc1ccccc1)Nc1nnc(C(=Cc2cccs2)NC(=O)c2ccccc2)s1 [Compound 13, N-(1-(5-(2-Phenylacetamido)-1,3,4-thiadiazol-2-yl)-2-(thiophen-2-yl)vinyl)benzamide] | 21 ± 0.1 | 24 ± 1.11 | 5.6 ± 0.15 (≈ 12.5 µM) | 2.72 ± 1.11 (≈ 6.09 µM) | 33 (≈ 73.9 µM) | 13.41 ± 0.1 (≈ 30 µM) | 6 ± 0.15 | 15 ± 0.11 | 14.6 ± 0.2 (≈ 32.6 µM) | 83 ± 0.22 (≈ 186 µM) | 18 ± 0.22 | 12 ± 0.46 | 84.11 ± 0.32 | 37.7 ± 0.93 | – | – | –
Cc1occc1C(=O)NNC(=S)NC(=O)c1ccccc1 [I] | – | – | – | – | – | – | – | – | – | – | – | – | – | – | – | 14.6 | –
COc1ccc(NC(=S)Nc2nc(-c3nnc(S)n3-c3ccc(OC)cc3OC)cs2)c(OC)c1 [V] | – | – | – | – | – | – | – | – | – | – | – | – | – | – | – | – | 2.7

Source: publication PMC7356696, “Synthesis, Antimicrobial Activity and Molecular Docking of Novel Thiourea Derivatives Tagged with Thiadiazole, Imidazole and Triazine Moieties as Potential DNA Gyrase and Topoisomerase IV Inhibitors” (Molecules, 2020)
